Data from patent US20180147206A1, “ACTIVATION OF NEURONAL STORE-OPERATED CALCIUM ENTRY PATHWAY FOR THE TREATMENT OF ALZHEIMER'S DISEASE” (The Board of Regents of the University of Texas System, priority 2015, published 2018).

Legend:
[1] = In vitro metabolism in liver S9 fractions; type: in vitro ADME, mouse; conditions: phase I cofactors (NADPH regenerating system); 2 μM
Protocol: (§1) FIGS. 12A-D. NSN21778 in vitro metabolism stability, in vivo plasma pharmacokinetics, and side effect on body weight (Related to FIGS. 7A-G). (FIG. 12A) The metabolic stability of NSN21778 was evaluated in vitro after incubation with commercial liver S9 fractions in the presence of phase I (NADPH regenerating system) cofactors. Compound levels were determined by LC-MS/MS. Additionally, the stability of NSN21778 in the presence of commercial CD-1 mouse plasma was measured. (FIG. 12B) NSN21778 was dosed i.p. at 10 mg/kg to female CD-1 mice. Levels of NSN21778 in plasma and brain were evaluated by LC-MS/MS. (FIG. 12C) WTGFP, PS1KIGFP and APPKIGFP mice body weight after i.p. administrated with control solution or 10 mg/kg NSN21778 for 10 weeks. Data presented as mean±SE (n=5 mice). (FIG. 12D) Body weight gained for various treatments.
In vitro metabolism assays. Female ICR/CD-1 mouse S9 fractions were purchased from Celsis/In Vitro Technologies (Baltimore, Md.). 25 μl (0.5 mg) of S9 protein was added to a 15 ml glass screw cap tube. […] The supernatant was analyzed by LC-MS/MS. Stability in commercial mouse CD-1 plasma (Bioreclamation, Westbury, N.Y.) was measured in a similar fashion. […] Reactions were quenched with methanol as above and supernatants evaluated by LC-MS/MS. Compound half-life was determined by the method of substrate depletion as described (McNaney et al., 2008).

[2] = In vivo pharmacokinetics (plasma and brain); parameters: species or system mouse; conditions: i.p. 10 mg/kg, female CD-1 mice
Protocol: as §1, with “(FIG. 12D) Body weight gained for various treatments.” left out
In vivo pharmacokinetics. […] The supernatant was then analyzed by LC-MS/MS. […] The limit of quantitation (LOQ) was defined as the lowest concentration at which back calculation yielded a concentration within 20% of the theoretical value and above the LOD signal. […] Because the animals were not perfused prior to tissue isolation, to determine the final brain concentration of NSN21778, the amount of compound in brain due to brain vasculature was first subtracted using the calculated plasma concentrations of NSN21778 and a value of 30 μl of blood/g of brain tissue (Kwon, 2001).

CC(=O)Nc1ccc(CCNc2ncnc3ccc(N)cc23)cc1 [NSN21778, N-{4-[2-(6-Amino-quinazolin-4-ylamino)-ethyl]-phenyl}-acetamide]
metabolic stability in liver S9 fractions [1]: generally stable | brain penetration [2]: poor | levels in plasma [2]: modest levels
